Laboratory results reported in patent US20240150377A1, “MODULATORS OF CYSTIC FIBROSIS TRANSMEMBRANE CONDUCTANCE REGULATOR” (VERTEX PHARMACEUTICALS INCORPORATED, priority 2020, published 2024).

Target: T1, CFTR (Homo sapiens, UniProt P13569, DEL508-508)
T1 construct: endogenous in cells; host or cells: primary human bronchial epithelial cells from CF subjects (F508del/MF-HBE), differentiated at air-liquid interface
Test: HBE2 assay: Ussing chamber assay of CFTR-mediated short-circuit currents
Assay type: cell-based
Settings: 3 μM corrector; F508del/MF-HBE cells; with 44 nM potentiator, 18-24 hours, 20% human serum
In short: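 F508del/MF-HBE cultured >14 days at air-liquid interface, mounted in Ussing chambers; transepithelial short-circuit current recorded under voltage clamp (Vhold=0 mV) at 37 °C. CFTR-mediated ISC (μA/cm^2) taken as peak forskolin response relative to steady-state current after inhibition; corrector activity assessed this way.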

T1 sequence (P13569 with tags, fused parts or gaps DEL508-508): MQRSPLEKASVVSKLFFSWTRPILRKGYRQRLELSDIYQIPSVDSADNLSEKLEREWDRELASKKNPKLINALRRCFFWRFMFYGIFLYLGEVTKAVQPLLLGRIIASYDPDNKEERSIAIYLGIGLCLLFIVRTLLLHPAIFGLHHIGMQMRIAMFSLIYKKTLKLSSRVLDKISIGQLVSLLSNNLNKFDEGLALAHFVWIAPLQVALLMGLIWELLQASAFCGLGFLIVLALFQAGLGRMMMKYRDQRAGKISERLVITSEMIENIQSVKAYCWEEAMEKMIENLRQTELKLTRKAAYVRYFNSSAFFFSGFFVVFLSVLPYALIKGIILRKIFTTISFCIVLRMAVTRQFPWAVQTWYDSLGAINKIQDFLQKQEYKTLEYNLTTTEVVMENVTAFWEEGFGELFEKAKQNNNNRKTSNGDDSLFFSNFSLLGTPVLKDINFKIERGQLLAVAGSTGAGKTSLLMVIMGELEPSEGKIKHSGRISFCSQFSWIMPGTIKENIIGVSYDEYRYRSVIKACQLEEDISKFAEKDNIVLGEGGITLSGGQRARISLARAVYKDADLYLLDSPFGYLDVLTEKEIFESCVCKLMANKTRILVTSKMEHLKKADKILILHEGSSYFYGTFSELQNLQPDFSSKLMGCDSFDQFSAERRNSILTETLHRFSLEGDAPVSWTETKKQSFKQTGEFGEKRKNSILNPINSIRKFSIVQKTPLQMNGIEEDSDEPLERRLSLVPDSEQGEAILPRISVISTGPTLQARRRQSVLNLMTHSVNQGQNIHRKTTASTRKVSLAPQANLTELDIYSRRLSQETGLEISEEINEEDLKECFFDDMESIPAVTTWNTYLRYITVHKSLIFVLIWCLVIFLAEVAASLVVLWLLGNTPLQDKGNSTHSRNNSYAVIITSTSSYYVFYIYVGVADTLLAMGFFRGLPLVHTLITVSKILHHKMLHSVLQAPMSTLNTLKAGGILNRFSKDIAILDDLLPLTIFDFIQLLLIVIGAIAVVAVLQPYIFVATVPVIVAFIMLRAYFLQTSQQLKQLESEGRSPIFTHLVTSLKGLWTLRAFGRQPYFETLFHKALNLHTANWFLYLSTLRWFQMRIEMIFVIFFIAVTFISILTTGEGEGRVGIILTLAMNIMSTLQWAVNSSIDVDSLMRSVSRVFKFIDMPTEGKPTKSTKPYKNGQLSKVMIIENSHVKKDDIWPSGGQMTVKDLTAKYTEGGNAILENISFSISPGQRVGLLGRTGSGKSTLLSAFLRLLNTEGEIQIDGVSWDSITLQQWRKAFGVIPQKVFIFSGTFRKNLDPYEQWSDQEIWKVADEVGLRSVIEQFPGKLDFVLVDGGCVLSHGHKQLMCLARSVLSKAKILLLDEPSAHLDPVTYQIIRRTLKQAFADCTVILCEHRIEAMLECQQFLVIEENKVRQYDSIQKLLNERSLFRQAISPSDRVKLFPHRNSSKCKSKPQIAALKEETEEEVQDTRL

SMILES | HBE2 Activity at 3 μM (%)
COCC1(CN(C)c2cncc(CN3C(=O)c4cccc(c4)S(=O)(=O)Nc4nc(cc(-c5c(C)cccc5C)n4)OC[C@H]3CCC(C)(C)C)n2)CC1 [Compound 1876] | +++ (+++ is >60+)
Cc1cccc(C)c1-c1cc2nc(n1)NS(=O)(=O)c1cccc(c1)C(=O)N(Cc1cncc(C3CCOCC3)n1)[C@H](CCC(C)(C)C)CO2 [Compound 1879] | +++ (+++ is >60+)
Cc1cccc(C)c1-c1cc2nc(n1)NS(=O)(=O)c1cccc(c1)C(=O)N(Cc1cnc3cc(C(C)C)oc3n1)[C@H](CC(C)(C)C)CO2 [Compound 1882] | +++ (+++ is >60+)
Cc1cccc(C)c1-c1cc2nc(n1)NS(=O)(=O)c1cccc(c1)C(=O)N(Cc1cnc3c(n1)N(C)C(C)(C)C3)[C@H](CC(C)(C)C)CO2 [Compound 1883] | +++ (+++ is >60+)
Cc1cccc(C)c1-c1cc2nc(n1)NS(=O)(=O)c1cccc(c1)C(=O)N(Cc1cncc(N(C)[C@H]3C[C@@H](C)C3)n1)[C@H](CCC(C)(C)C)CO2 [Compound 1884] | +++ (+++ is >60+)
Cc1cccc(C)c1-c1cc2nc(n1)NS(=O)(=O)c1cccc(c1)C(=O)N(Cc1cncc(N(C)[C@H]3C[C@H](C)C3)n1)[C@H](CCC(C)(C)C)CO2 [Compound 1885] | +++ (+++ is >60+)
Cc1cccc(C)c1-c1cc2nc(n1)NS(=O)(=O)c1cccc(c1)C(=O)N(Cc1cncc(N3CCC[C@H]3C)n1)[C@H](CC1CCCC1)CO2 [Compound 1888] | +++ (+++ is >60+)
Cc1cccc(C)c1-c1cc2nc(n1)NS(=O)(=O)c1cccc(c1)C(=O)N(Cc1cnc3cc(C(C)C)n(C)c3n1)[C@H](COC1CC1)CO2 [Compound 1889] | +++ (+++ is >60+)
Cc1cccc(C)c1-c1cc2nc(n1)NS(=O)(=O)c1cccc(c1)C(=O)N(Cc1cncc(N(C)C3CCC3)n1)[C@H](COC1CC1)CO2 [Compound 1893] | +++ (+++ is >60+)
Cc1cccc(C)c1-c1cc2nc(n1)NS(=O)(=O)c1cccc(c1)C(=O)N(Cc1cncc(N3CCCC[C@H]3C)n1)[C@@H](C1CC(C)(C)C1)CO2 [Compound 1898] | +++ (+++ is >60+)
Cc1cccc(C)c1-c1cc2nc(n1)NS(=O)(=O)c1cccc(c1)C(=O)N(Cc1cncc(N3CCC[C@H]3C)n1)[C@H](CC1CC(C)(C)C1)CO2 [Compound 1899] | +++ (+++ is >60+)
Cc1cccc(C)c1-c1cc2nc(n1)NS(=O)(=O)c1cccc(c1)C(=O)N(Cc1cncc(N3CCC[C@H]3C)n1)[C@H](CC1CC(C)(C)C1)CO2 [Compound 1900] | + (+ is <300))
Cc1cccc(C)c1-c1cc2nc(n1)NS(=O)(=O)c1cccc(c1)C(=O)N(Cc1cncc(N3CCCC[C@H]3C)n1)[C@H](CC1CC(C)(C)C1)CO2 [Compound 1901] | +++ (+++ is >60+)
Cc1cccc(C)c1-c1cc2nc(n1)NS(=O)(=O)c1cccc(c1)C(=O)N(Cc1cncc(N(C)CC(C)C)n1)[C@H](COC1CC1)CO2 [Compound 1903] | +++ (+++ is >60+)
Cc1cccc(C)c1-c1cc2nc(n1)NS(=O)(=O)c1cccc(c1)C(=O)N(Cc1cncc(N(C)C3CC4(CC4)C3)n1)[C@H](COC1CC1)CO2 [Compound 1904] | +++ (+++ is >60+)
Cc1cccc(C)c1-c1cc2nc(n1)NS(=O)(=O)c1cccc(c1)C(=O)N(Cc1cncc(N(C)C3CC(F)(F)C3)n1)[C@H](COC1CC1)CO2 [Compound 1905] | +++ (+++ is >60+)
Cc1cccc(C)c1-c1cc2nc(n1)NS(=O)(=O)c1cccc(c1)C(=O)N(Cc1cncc(N(C)[C@H]3C[C@@H](F)C3)n1)[C@H](COC1CC1)CO2 [Compound 1906] | +++ (+++ is >60+)
Cc1cccc(C)c1-c1cc2nc(n1)NS(=O)(=O)c1cccc(c1)C(=O)N(Cc1cncc(N(C)[C@H]3C[C@H](F)C3)n1)[C@H](COC1CC1)CO2 [Compound 1907] | +++ (+++ is >60+)
Cc1cccc(C)c1-c1cc2nc(n1)NS(=O)(=O)c1cccc(c1)C(=O)N(Cc1cncc(N3CCCC[C@H]3C)n1)[C@H](COC1CC1)CO2 [Compound 1908] | +++ (+++ is >60+)
CCn1c(C)cc2ncc(CN3C(=O)c4cccc(c4)S(=O)(=O)Nc4nc(cc(-c5c(C)cccc5C)n4)OC[C@H]3CC(C)(C)C)nc21 [Compound 1910] | +++ (+++ is >60+)
CCc1cc2ncc(CN3C(=O)c4cccc(c4)S(=O)(=O)Nc4nc(cc(-c5c(C)cccc5C)n4)OC[C@H]3CC(C)(C)C)nc2n1C [Compound 1911] | +++ (+++ is >60+)
Cc1cccc(C)c1-c1cc2nc(n1)NS(=O)(=O)c1cccc(c1)C(=O)N(Cc1cncc(N(C)[C@H]3C[C@H](F)C3)n1)[C@H](CCC(C)C)CO2 [Compound 1914] | +++ (+++ is >60+)
Cc1cccc(C)c1-c1cc2nc(n1)NS(=O)(=O)c1cccc(c1)C(=O)N(Cc1cncc(N(C)[C@H]3C[C@@H](F)C3)n1)[C@H](CCC1CC1)CO2 [Compound 1915] | +++ (+++ is >60+)

SMILES | HBE2 Activity at 3 μM (%)
Cc1cccc(C)c1-c1cc2nc(n1)NS(=O)(=O)c1cccc(c1)C(=O)N(Cc1cncc(N(C)[C@H]3C[C@H](F)C3)n1)[C@H](CCC1CC1)CO2 [Compound 1916] | +++ (+++ is >60+)
Cc1cccc(C)c1-c1cc2nc(n1)NS(=O)(=O)c1cccc(c1)C(=O)N(Cc1cncc(N3[C@H](C)CC[C@@H]3C)n1)[C@H](CCC(C)(C)C)CO2 [Compound 1917] | +++ (+++ is >60+)
Cc1cccc(C)c1-c1cc2nc(n1)NS(=O)(=O)c1cccc(c1)C(=O)N(Cc1cncc(N3CC[C@H]3C)n1)[C@H](COC1CC1)CO2 [Compound 1918] | +++ (+++ is >60+)
Cc1cccc(C)c1-c1cc2nc(n1)NS(=O)(=O)c1cccc(c1)C(=O)N(Cc1cnc3cc(C(C)C)n(C)c3n1)[C@H](COC(C)C)CO2 [Compound 1919] | +++ (+++ is >60+)
Cc1cccc(C)c1-c1cc2nc(n1)NS(=O)(=O)c1cccc(c1)C(=O)N(Cc1cncc(N3CC[C@@H]4CC[C@@H]43)n1)[C@H](CCC1CC1)CO2 [Compound 1922] | +++ (+++ is >60+)
Cc1cccc(C)c1-c1cc2nc(n1)NS(=O)(=O)c1cccc(n1)C(=O)N(Cc1cncc(N(C)C3CCC3)c1)[C@H](CC(C)(C)C)CO2 [Compound 1924] | +++ (+++ is >60+)
CCN(c1cncc(CN2C(=O)c3cccc(c3)S(=O)(=O)Nc3nc(cc(-c4c(C)cccc4C)n3)OC[C@H]2COC2CC2)n1)C1CCC1 [Compound 1925] | +++ (+++ is >60+)
Cc1cccc(C)c1-c1cc2nc(n1)NS(=O)(=O)c1cccc(c1)C(=O)N(Cc1cncc(N3CC[C@H]3C)n1)[C@H](COC(C)C)CO2 [Compound 1926] | +++ (+++ is >60+)
Cc1cccc(C)c1-c1cc2nc(n1)NS(=O)(=O)c1cccc(c1)C(=O)N(Cc1cncc(N(C)C3CCC3)c1)[C@H](CC(C)(C)C)CO2 [Compound 1927] | +++ (+++ is >60+)
Cc1cccc(C)c1-c1cc2nc(n1)NS(=O)(=O)c1cccc(c1)C(=O)N(Cc1cc(N)cc(N(C)C3CCC3)n1)[C@H](CC(C)(C)C)CO2 [Compound 1928] | +++ (+++ is >60+)
Cc1cccc(C)c1-c1cc2nc(n1)NS(=O)(=O)c1cccc(c1)C(=O)N(Cc1cc(NC(=O)OC(C)(C)C)cc(N(C)C3CCC3)n1)[C@H](CC(C)(C)C)CO2 [Compound 1929] | +++ (+++ is >60+)
Cc1cccc(C)c1-c1cc2nc(n1)NS(=O)(=O)c1cccc(c1)C(=O)N(Cc1ccc3nc(C(C)C)n(C)c3n1)[C@H](COC(C)C)CO2 [Compound 1930] | +++ (+++ is >60+)
Cc1cccc(C)c1-c1cc2nc(n1)NS(=O)(=O)c1cccc(c1)C(=O)N(Cc1cnc3cc(C(C)C)n(C)c3n1)[C@H](C[C@H]1CCCOC1)CO2 [Compound 1931] | +++ (+++ is >60+)
CCn1c(C(C)C)cc2ncc(CN3C(=O)c4cccc(c4)S(=O)(=O)Nc4nc(cc(-c5c(C)cccc5C)n4)OC[C@H]3COC(C)C)nc21 [Compound 1933] | +++ (+++ is >60+)
Cc1cccc(C)c1-c1cc2nc(n1)NS(=O)(=O)c1cccc(c1)C(=O)N(Cc1cnc3cc(C(C)C)n(C)c3n1)[C@H](CC1CCCCC1)CO2 [Compound 1934] | +++ (+++ is >60+)
CO[C@H](C)[C@@H]1CCCN1c1cncc(CN2C(=O)c3cccc(c3)S(=O)(=O)Nc3nc(cc(-c4c(C)cccc4C)n3)OC[C@H]2CCC(C)(C)C)n1 [Compound 1935] | +++ (+++ is >60+)
CO[C@@H](C)[C@@H]1CCCN1c1cncc(CN2C(=O)c3cccc(c3)S(=O)(=O)Nc3nc(cc(-c4c(C)cccc4C)n3)OC[C@H]2CCC(C)(C)C)n1 [Compound 1936] | +++ (+++ is >60+)
Cc1cccc(C)c1-c1cc2nc(n1)NS(=O)(=O)c1cccc(c1)C(=O)N(Cc1cncc(N3CCC[C@H]3C)n1)[C@H](COC(C)C)CO2 [Compound 1937] | +++ (+++ is >60+)
Cc1cccc(C)c1-c1cc2nc(n1)NS(=O)(=O)c1cc(n(C)n1)C(=O)N(Cc1cncc(N(C)C3CCC3)n1)[C@H](CC(C)(C)C)CO2 [Compound 1944] | +++ (+++ is >60+)
Cc1cccc(C)c1-c1cc2nc(n1)NS(=O)(=O)c1cc(n(C)n1)C(=O)N(Cc1cncc(N3CCC[C@H]3C)n1)[C@H](CC(C)(C)C)CO2 [Compound 1945] | +++ (+++ is >60+)
Cc1cccc(C)c1-c1cc2nc(n1)NS(=O)(=O)c1cccc(c1)C(=O)N(Cc1cncc(N(C)C3CC(F)(F)C3)n1)[C@H](COC(C)C)CO2 [Compound 1946] | +++ (+++ is >60+)
Cc1cccc(C)c1-c1cc2nc(n1)NS(=O)(=O)c1cccc(c1)C(=O)N(Cc1cncc(N3[C@H](C)CC[C@H]3C)n1)[C@H](CCC(C)(C)C)CO2 [Compound 1947] | +++ (+++ is >60+)
